Molecular target: T1, recombinant human SAE enzyme (Homo sapiens, UniProt Q9UBT2)
T1 sequence (Q9UBT2 1-640): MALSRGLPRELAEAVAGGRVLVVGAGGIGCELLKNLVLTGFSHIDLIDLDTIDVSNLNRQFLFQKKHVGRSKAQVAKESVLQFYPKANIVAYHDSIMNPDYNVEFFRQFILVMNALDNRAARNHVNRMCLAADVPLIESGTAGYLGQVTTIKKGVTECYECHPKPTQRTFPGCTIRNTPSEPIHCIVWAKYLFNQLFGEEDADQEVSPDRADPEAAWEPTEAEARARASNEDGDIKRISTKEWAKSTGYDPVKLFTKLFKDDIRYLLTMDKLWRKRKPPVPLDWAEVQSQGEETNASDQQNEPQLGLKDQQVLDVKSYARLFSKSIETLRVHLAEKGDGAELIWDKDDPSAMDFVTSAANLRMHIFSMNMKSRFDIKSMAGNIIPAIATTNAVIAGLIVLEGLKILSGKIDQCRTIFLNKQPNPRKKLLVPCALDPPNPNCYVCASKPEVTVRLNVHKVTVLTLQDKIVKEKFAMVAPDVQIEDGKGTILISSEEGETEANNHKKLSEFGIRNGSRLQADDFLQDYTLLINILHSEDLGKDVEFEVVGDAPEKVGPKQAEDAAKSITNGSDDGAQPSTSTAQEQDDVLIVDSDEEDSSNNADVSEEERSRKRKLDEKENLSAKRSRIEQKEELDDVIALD
T1 sequence (Q9UBE0 1-346 partner): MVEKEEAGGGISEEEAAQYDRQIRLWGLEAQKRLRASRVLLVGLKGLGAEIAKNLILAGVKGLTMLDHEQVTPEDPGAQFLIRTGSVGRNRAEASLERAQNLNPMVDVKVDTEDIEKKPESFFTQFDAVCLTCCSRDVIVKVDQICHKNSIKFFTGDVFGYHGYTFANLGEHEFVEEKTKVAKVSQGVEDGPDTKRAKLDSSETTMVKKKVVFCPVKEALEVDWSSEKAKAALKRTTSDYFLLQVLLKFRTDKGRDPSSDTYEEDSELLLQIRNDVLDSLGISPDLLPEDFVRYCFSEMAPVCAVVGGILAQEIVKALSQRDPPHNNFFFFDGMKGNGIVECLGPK
Assay: SAE HTRF Enzyme Assay
Assay type: biochemical
Conditions: for IC50: class symbols A-C; for inhibition at 0.111 µM: compound concentration 0.111 μM, read-out: Percent Inhibition
Method in brief: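 Reaction with 0.11 nM recombinant human SAE, 0.5 μM ATP, 0.01 μM Ubc9-GST, 0.125 μM Sumo-Flag in HEPES pH 7.5, MgCl2, GSH, BSA, 105 min at 24 °C. Stopped with EDTA/KF buffer carrying Eu-anti-Flag and anti-GST-APC; HTRF read after 2 h; % inhibition or IC50.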

SMILES: CC1CC1Cn1ccc(C(=O)c2cncnc2N[C@@H]2C[C@H](COS(N)(=O)=O)[C@@H](O)C2)n1 (stereo partly drawn) [Compound I-55, [(1R,2S,4R)-hydroxy-4-{[5-({1-[((1S,2S)-2-methylcyclopropyl)methyl]-1H-pyrazol-3-yl}carbonyl)pyrimidin-4-yl]amino}cyclopentyl]methyl sulfamate and [(1R,2S,4R)-2-hydroxy-4-{[5-({1-[((1R,2R)-2-methylcyclopropyl)methyl]-1H-pyrazol-3-yl}carbonyl)pyrimidin-4-yl]amino}cyclopentyl]methyl sulfamate]
- IC50: 0.01 to 0.1 µM
- inhibition at 0.111 µM: 58%

SMILES: NS(=O)(=O)OC[C@H]1C[C@@H](Nc2ccncc2C(=O)c2ccn(Cc3ccccc3)n2)[C@H](O)[C@@H]1O [Compound I-56, [(1R,2R,3S,4R)-4-({3-[(1-Benzyl-1H-pyrazol-3-yl)carbonyl]pyridin-4-yl}amino)-2,3-dihydroxycyclopentyl]methyl sulfamate]
- IC50: < 0.01 µM
- inhibition at 0.111 µM: 100%

SMILES: COc1cc(Cn2ccc(C(=O)c3cncnc3N[C@@H]3C[C@H](COS(N)(=O)=O)[C@@H](O)[C@@H]3F)c2)ccc1F [Compound I-57, {(1R,2R,3R,4R)-3-Fluoro-4-[(5-{[1-(4-fluoro-3-methoxybenzyl)-1H-pyrrol-3-yl]carbonyl}pyrimidin-4-yl)amino]-2-hydroxycyclopentyl}methyl sulfamate]
- IC50: < 0.01 µM
- inhibition at 0.111 µM: 98%

SMILES: NS(=O)(=O)OC[C@H]1C[C@@H](Nc2ncncc2C(=O)c2ccn(Cc3ccc(Cl)c(Cl)c3)n2)C[C@@H]1O [Compound I-58, {(1R,2S,4R)-4-[(5-{[1-(3,4-dichlorobenzyl)-1H-pyrazol-3-yl]carbonyl}pyrimidin-4-yl)amino]-2-hydroxycyclopentyl}methyl sulfamate]
- IC50: < 0.01 µM
- inhibition at 0.111 µM: 88%

SMILES: NS(=O)(=O)OC[C@H]1C[C@@H](Nc2ncncc2C(=O)c2ccn(CC#CCC3CCCC3)n2)C[C@@H]1O [Compound I-59, {(1R,2S,4R)-4-[(5-{[1-(4-cyclopentylbut-2-yn-1-yl)-1H-pyrazol-3-yl]carbonyl}pyrimidin-4-yl)amino]-2-hydroxycyclopentyl}methyl sulfamate]
- IC50: 0.01 to 0.1 µM
- inhibition at 0.111 µM: 70%

SMILES: CC(C)(O)c1cccc(Cn2ccc(C(=O)c3cncnc3N[C@@H]3C[C@H](COS(N)(=O)=O)[C@@H](O)C3)n2)c1 [Compound I-60, [(1R,2S,4R)-2-hydroxy-4-{[5-({1-[3-(2-hydroxypropan-2-yl)benzyl]-1H-pyrazol-3-yl}carbonyl)pyrimidin-4-yl]amino}cyclopentyl]methyl sulfamate]
- IC50: 0.01 to 0.1 µM
- inhibition at 0.111 µM: 91%

SMILES: NS(=O)(=O)OC[C@H]1C[C@@H](Nc2ncncc2C(=O)c2cc(Cl)n(Cc3cccc(Cl)c3)c2)[C@@H](F)[C@@H]1O [Compound I-61]
- IC50: < 0.01 µM
- inhibition at 0.111 µM: 99%

SMILES: NS(=O)(=O)OC[C@H]1C[C@@H](Nc2ncncc2C(=O)c2ccn(Cc3ccc(F)cc3F)n2)C[C@@H]1O [Compound I-62, {(1R,2S,4R)-4-[(5-{[1-(2,4-difluorobenzyl)-1H-pyrazol-3-yl]carbonyl}pyrimidin-4-yl)amino]-2-hydroxycyclopentyl}methyl sulfamate]
- IC50: < 0.01 µM
- inhibition at 0.111 µM: 96%

SMILES: COc1ncccc1Cn1ccc(C(=O)c2cncnc2N[C@@H]2C[C@H](COS(N)(=O)=O)[C@@H](O)C2)n1 [Compound I-63, [(1R,2S,4R)-2-hydroxy-4-{[5-({1-[(2-methoxypyridin-3-yl)methyl]-1H-pyrazol-3-yl}carbonyl)pyrimidin-4-yl]amino}cyclopentyl]methyl sulfamate]
- IC50: 0.01 to 0.1 µM
- inhibition at 0.111 µM: 87%

SMILES: CC(C)(C)c1cccc(Cn2ccc(C(=O)c3cncnc3N[C@@H]3C[C@H](COS(N)(=O)=O)[C@@H](O)C3)n2)c1 [Compound I-64, {(1R,2S,4R)-4-[(5-{[1-(3--tert-butylbenzyl)-1H-pyrazol-3-yl]carbonyl}pyrimidin-4-yl)amino]-2-hydroxycyclopentyl}methyl sulfamate]
- IC50: 0.01 to 0.1 µM
- inhibition at 0.111 µM: 91%

SMILES: Cc1cc(C(=O)c2cncnc2N[C@@H]2C[C@H](COS(N)(=O)=O)[C@@H](O)C2)nn1Cc1ccccc1 [Compound I-66, [(1R,2S,4R)-4-({5-[(1-benzyl-5-methyl-1H-pyrazol-3-yl)carbonyl]pyrimidin-4-yl}amino)-2-hydroxycyclopentyl]methyl sulfamate]
- IC50: < 0.01 µM
- inhibition at 0.111 µM: 98%

SMILES: NS(=O)(=O)OC[C@H]1C[C@@H](Nc2ncncc2C(=O)c2ccn(Cc3cccc(NC(=O)CCl)c3)n2)[C@H](O)[C@@H]1O [Compound I-67, [(1R,2R,3S,4R)-4-({5-[(1-{3-[(chloroacetyl)amino]benzyl}-1H-pyrazol-3-yl)carbonyl]pyrimidin-4-yl}amino)-2,3-dihydroxycyclopentyl]methyl sulfamate]
- IC50: < 0.01 µM
- inhibition at 0.111 µM: 94%

SMILES: NS(=O)(=O)OC[C@H]1C[C@@H](Nc2ncncc2C(=O)c2ccn(Cc3cccc(I)c3)c2)C[C@@H]1O [Compound I-68, {(1R,2S,4R)-2-hydroxy-4-[(5-{[1-(3-iodobenzyl)-1H-pyrrol-3-yl]carbonyl}pyrimidin-4-yl)amino]cyclopentyl}methyl sulfamate]
- IC50: < 0.01 µM
- inhibition at 0.111 µM: 99%

SMILES: NS(=O)(=O)OC[C@H]1C[C@@H](Nc2ncncc2C(=O)c2ccn(Cc3ccc(C(F)(F)F)cc3C(F)(F)F)n2)C[C@@H]1O [Compound I-69, [(1R,2S,4R)-4-{[5-({1-[2,4-bis(trifluoromethyl)benzyl]-1H-pyrazol-3-yl}carbonyl)pyrimidin-4-yl]amino}-2-hydroxycyclopentyl]methyl sulfamate]
- IC50: 0.1 to 1 µM
- inhibition at 0.111 µM: 39%

SMILES: NS(=O)(=O)OC[C@H]1C[C@@H](Nc2ncncc2C(=O)c2ccn(Cc3cc(Cl)ccn3)n2)[C@H](O)[C@@H]1O [Compound I-70, [(1R,2R,3S,4R)-4-{[5-({1-[(4-chloropyridin-2-yl)methyl]-1H-pyrazol-3-yl}carbonyl)pyrimidin-4-yI]amino}-2,3-dihydroxycyclopentyl]methyl sulfamate]
- IC50: < 0.01 µM
- inhibition at 0.111 µM: 99%

SMILES: Cc1cc(C(=O)c2cncnc2N[C@@H]2C[C@H](COS(N)(=O)=O)[C@@H](O)[C@@H]2F)cn1Cc1cccc(Br)c1 [Compound I-71, {(1R,2R,3R,4R)-4-[(5-{[1-(3-bromobenzyl)-5-methyl-1H-pyrrol-3-yl]carbonyl}pyrimidin-4-yl)amino]-3-fluoro-2-hydroxycyclopentyl}methyl sulfamate]
- IC50: < 0.01 µM
- inhibition at 0.111 µM: 100%

SMILES: NS(=O)(=O)OC[C@H]1C[C@@H](Nc2ncncc2C(=O)c2ccn(Cc3ccc(F)c(Br)c3)n2)C[C@@H]1O [Compound I-72, {(1R,2S,4R)-4-[(5-{[1-(3-bromo-4-fluorobenzyl)-1H-pyrazol-3-yl]carbonyl}pyrimidin-4-yl)amino]-2-hydroxycyclopentyl}methyl sulfamate]
- IC50: < 0.01 µM
- inhibition at 0.111 µM: 100%

SMILES: NS(=O)(=O)OC[C@H]1C[C@@H](Nc2ncncc2C(=O)c2ccn(Cc3cnc(C(F)(F)F)s3)c2)C[C@@H]1O [Compound I-73, [(1R,2S,4R)-2-hydroxy-4-({5-[(1-{[2-(trifluoromethyl)-1,3-thiazol-5-yl]methyl}-1H-pyrrol-3-yl)carbonyl]pyrimidin-4-yl}amino)cyclopentyl]methyl sulfamate]
- IC50: < 0.01 µM
- inhibition at 0.111 µM: 94%

Reference: patent US9695154B2, “Heteroaryl inhibitors of sumo activating enzyme” (MILLENNIUM PHARMACEUTICALS, INC., priority 2013, dated 2017)
